Where a name gives a salt, the structure may show the parent alone. Read-outs that look alike come from different tables or passages of the source.
What was measured:
male Sprague-Dawley rats = assay: in vivo screen APCC: blood cholesterol in rats after one night on a high fat, high cholesterol diet (PCC); settings: blood cholesterol vs vehicle (CMC/Tween), dosed at 4 PM, PCC diet containing 0.5% cholic acid overnight, sacrificed at 8 AM, dose not given
Excerpt: In one in vivo screen designated APCC, male Sprague-Dawley rats (200 to 225 g) were randomly divided into treatment groups and dosed at 4 PM with either vehicle (CMC/Tween) or suspensions of compounds in vehicle. The normal chow diet was then replaced with a high fat, high cholesterol diet (designated PCC) containing 0.5% cholic acid. The rats consumed this diet ad libitum during the night and were sacrificed at 8 AM to obtain blood samples for cholesterol analysis using standard procedures. Statistical differences between mean cholesterol values for the same vehicle were determined using analysis of variance followed by Fisher's least significant test.

[1] = molecular target: acyl-CoA: cholesterol acyltransferase (ACAT); assay: in vitro ACAT inhibition test (IAI): formation of radiolabeled cholesterol oleate from radiolabeled oleic acid in intestinal microsomes; assay type: biochemical; settings: tissue preparation containing rabbit intestinal microsomes, concentration required to inhibit the activity of the enzyme by 50%, read-out: IAI IC₅₀
Protocol: The ability of representative compounds of the present invention to inhibit ACAT was measured using an in vitro test more fully described in F. J. Field and R. G. Salone, Biochemica et Biophysica 712:557-570 (1982). The test assesses the ability of a test compound to inhibit the acylation of cholesterol by oleic acid by measuring the amount of radiolabeled cholesterol oleate formed from radiolabeled oleic acid in a tissue preparation containing rabbit intestinal microsomes.
The data appear in Table 1 where they are expressed in IC₅₀ values; i.e., the concentration of test compound required to inhibit the activity of the enzyme by 50%.

Row | Structure (SMILES) | % Change (mg/dl) (male Sprague-Dawley rats) | IC50 [1] | further results
1 | Cc1cc(C(C)(C)C)c(OC(=O)NS(=O)(=O)Oc2ccccc2)c(C(C)(C)C)c1 [Example 2, 2,6-Bis(1,1-dimethylethyl)-4-methylphenyl(phenoxysulfonyl)carbamate] | -65% |  | 
2 | CC(C)(C)c1cccc(C(C)(C)C)c1OC(=O)NS(=O)(=O)Oc1c(C(C)(C)C)cccc1C(C)(C)C [Example 26, 2,6-Bis(1,1-dimethylethyl)phenyl[(2,6-bis(1,1-dimethylethyl)phenoxy)sulfonyl]carbamate] | -18% |  | 
3 | CC(C)c1cccc(C(C)C)c1OC(=O)NS(=O)(=O)Oc1ccc(F)cc1F [Example 20] | -11% | 50 µM | 
4 | CC(C)c1cccc(C(C)C)c1OC(=O)N(C)S(=O)(=O)Oc1c(C(C)C)cccc1C(C)C [Example 31, 2,6-bis(1-methylethyl)phenyl[[2,6-bis(1-methylethyl)phenoxylsulfonyl]methyl carbamate] | -64% | 63 µM | 
5 | CCCCCCCCCCCCCCCCOS(=O)(=O)NC(=O)Oc1c(C(C)C)cccc1C(C)C [Example 23, 2,6-Bis(1-methylethyl)phenyl[(hexadecyloxy)sulfonyl]carbamate] | -59% |  | 
6 | COc1cccc(OC)c1OS(=O)(=O)NC(=O)Oc1c(C(C)C)cccc1C(C)C [Example 19, 2,6-Bis(1-methylethyl)phenyl[(2,6-dimethoxyphenoxy)sulfonyl]carbamate] | -70% |  | 
7 | CC(C)c1cccc(C(C)C)c1OC(=O)NS(=O)(=O)Oc1c(C(C)C)cccc1C(C)C [Example 27, 2,6-bis(1-methylethyl)phenyl[[2,6-bis(1-methylethyl)phenoxylsulfonyl]carbamate, 2-hydroxy-N,N,N-trimethylethanaminium salt] | -72% | 3.3 µM | 
8 | Cc1cccc(C)c1OS(=O)(=O)NC(=O)Oc1c(C(C)C)cccc1C(C)C [Example 18, 2,6-Bis(1-methylethyl)phenyl[(2,6-dimethylphenoxy)sulfonyl]carbamate] | -58% |  | 
9 | CC(C)c1cccc(C(C)C)c1OC(=O)NS(=O)(=O)Oc1c(C(C)C)cccc1C(C)C [Example 1, 2,6-Bis(1-methylethyl)phenyl[[2,6-bis(1-methylethyl)phenoxy]sulfonyl]carbamate] | -70% |  | 
10 | CC(C)c1cccc(C(C)C)c1OC(=O)NS(=O)(=O)Oc1c(C(C)C)cccc1C(C)C [Example 28, 2,6-bis(1-methylethyl)phenyl[[2,6-bis(1-methylethyl)phenoxy]sulfonyl]carbamate, monosodium salt] |  |  | IC50 ([1]; monosodium salt): 5.2 µM; % Change (mg/dl) (male Sprague-Dawley rats; monosodium salt): -65%
11 | COc1cccc(OC)c1OC(=O)NS(=O)(=O)Oc1c(OC)cccc1OC [Example 25, 2,6-dimethoxyphenyl[(2,6-dimethoxyphenoxy)sulfonyl]carbamate] | -10% |  | 
12 | CCCCCCOS(=O)(=O)NC(=O)Oc1c(C(C)(C)C)cc(C)cc1C(C)(C)C [Example 3, 2,6-Bis(1,1-dimethylethyl)-4-methylphenyl[(hexyloxy)sulfonyl]carbamate] | -56% |  | 
13 | COc1cc(OC)c(OS(=O)(=O)NC(=O)Oc2c(C(C)C)cccc2C(C)C)c(OC)c1 [Example 21, 2,6-Bis(1-methylethyl)phenyl[(2,4,6-trimethoxyphenoxy)sulfonyl]carbamate] | -61% |  | 
14 | CCCCCCCCCCCCOS(=O)(=O)NC(=O)Oc1c(C(C)(C)C)cc(C)cc1C(C)(C)C [Example 4] | -65% | 52 µM | 
15 | CCCCCCOS(=O)(=O)NC(=O)Oc1c(C(C)C)cccc1C(C)C [Example 7, 2,6-Bis(1-methylethyl)phenyl[(hexyloxy)sulfonyl]carbamate] | -52% |  | 
16 | CCCCCCCCCCCCOC(=O)NS(=O)(=O)Oc1c(C(C)C)cccc1C(C)C [Example 5, Dodecyl [[2,6-bis(1-methylethyl)phenoxy]sulfonyl]carbamate] | -62% | 13 µM | 
17 | CCCCCCCCCCCCOS(=O)(=O)NC(=O)Oc1c(-c2ccccc2)cccc1-c1ccccc1 [Example 10, [1,1':3',1''-Terphenyl]-2'-yl[(dodecyloxy)sulfonyl]carbamate] | -69% | > 10 µM | 
18 | CC(C)c1cccc(C(C)C)c1OC(=O)NS(=O)(=O)Oc1ccccc1 [Example 17, 2,6-Bis(1-methylethyl)phenyl(phenoxysulfonyl)carbamate] | -26% |  | 
19 | CCCCCCCCCCCCOS(=O)(=O)NC(=O)Oc1c(C(C)C)cccc1C(C)C [Example 8] | -68% | 13 µM | 
20 | COC(=O)NS(=O)(=O)Oc1c(C(C)C)cccc1C(C)C [Example 6, Methyl[[2,6-bis(1-methylethyl)phenoxy]sulfonyl]carbamate] |  | > 100 µM | 
21 | CC(C)c1cccc(C(C)C)c1OC(=O)NS(=O)(=O)Oc1c(C(C)(C)C)cccc1C(C)(C)C [Example 24, 2,6-Bis(1-methylethyl)phenyl[[2,6-bis(1,1-dimethylethyl)phenoxy]sulfonyl]carbamate] | -55% |  | 
22 | CC(C)c1cccc(C(C)C)c1OS(=O)(=O)NC(=O)Oc1c(C(C)(C)C)cccc1C(C)(C)C [Example 9, 2,6-Bis(1,1-dimethylethyl)phenyl[[2,6-bis(1-methylethyl)phenoxy]sulfonyl]carbamate] | -70% |  | 
23 | CC(C)c1cccc(C(C)C)c1OC(=O)NS(=O)(=O)Oc1c(F)cccc1F [Example 22] | +9% | 38 µM | 
24 | CCCCCCCCCCCCOS(=O)(=O)NC(=O)Sc1c(C(C)C)cccc1C(C)C [Example 30, S-[2,6-bis(1-methylethyl)phenyl][(dodecyloxy)sulfonyl]carbamothioate] | -9% |  | 
